# Assay results taken from US7261906B2, “Anti-cancer therapy agent of arsenic hexoxide (As4O6) of a natural chemical substance and its pharmaceutical composition” (priority 1998, dated 2007).
# Test: Acute toxicity, single oral administration
# Type: in vivo, Rats (Sprague Dawley strain)
# Conditions: for Mortality, Days after treatment 1 / Mortality, Days after treatment 2 / Mortality, Days after treatment 3 / Mortality, Days after treatment 4 / Mortality, Days after treatment 5 / Mortality, Days after treatment 6 / Mortality, Days after treatment 7 / Mortality, Days after treatment 8 / Mortality, Days after treatment 9 / Mortality, Days after treatment 10 / Mortality, Days after treatment 11 / Mortality, Days after treatment 12 / Mortality, Days after treatment 13 / Mortality, Days after treatment 14 / Mortality, Hours after treatment 1 / Mortality, Hours after treatment 2 / Mortality, Hours after treatment 3 / Mortality, Hours after treatment 4 / Mortality, Hours after treatment 5 / Mortality, Hours after treatment 6 / Final mortality / Final mortality (dead/total): male
# Method: The acute toxicity of oral administration of HD-2 was evaluated according to toxicity assessment criteria described in Article 96-8 of Notice on Food and Drug Safety (Apr. 16, 1994). Rats (Sprague Dawley strain) were used for animal experiments. Dosage of a single, oral administration ranged from 0.4 to 1.25 g/kg body weight in male rats and 0.4 to […] body weight in female rats. General conditions of the animals, toxic symptoms, and mortality were measured every hour for the initial 6 hours following the single administration and once a day afterwards for 14 days. Body weights were measured before starting the study, 7 days after the administration, and at autopsy. Expired rats were studied to find the cause of death at autopsy. […] Some rats manifesting these clinical symptoms expired, but others recovered to normal condition within 2 to 3 days of clinical symptoms.
structure (smiles),measurement,setting,value
"O1[As]2O[As]3O[As]1O[As](O2)O3 [HD-2, arsenic hexoxide (As4O6)]","Mortality, Days after treatment 1",0.4 g/kg B.W. oral,0
same,"Mortality, Days after treatment 2",0.4 g/kg B.W. oral,0
same,"Mortality, Days after treatment 3",0.4 g/kg B.W. oral,0
same,"Mortality, Days after treatment 4",0.4 g/kg B.W. oral,0
same,"Mortality, Days after treatment 5",0.4 g/kg B.W. oral,0
same,"Mortality, Days after treatment 6",0.4 g/kg B.W. oral,0
same,"Mortality, Days after treatment 7",0.4 g/kg B.W. oral,0
same,"Mortality, Days after treatment 8",0.4 g/kg B.W. oral,0
same,"Mortality, Days after treatment 9",0.4 g/kg B.W. oral,0
same,"Mortality, Days after treatment 10",0.4 g/kg B.W. oral,0
same,"Mortality, Days after treatment 11",0.4 g/kg B.W. oral,0
same,"Mortality, Days after treatment 12",0.4 g/kg B.W. oral,0
same,"Mortality, Days after treatment 13",0.4 g/kg B.W. oral,0
same,"Mortality, Days after treatment 14",0.4 g/kg B.W. oral,0
same,"Mortality, Hours after treatment 1",0.4 g/kg B.W. oral,0
same,"Mortality, Hours after treatment 2",0.4 g/kg B.W. oral,0
same,"Mortality, Hours after treatment 3",0.4 g/kg B.W. oral,0
same,"Mortality, Hours after treatment 4",0.4 g/kg B.W. oral,0
same,"Mortality, Hours after treatment 5",0.4 g/kg B.W. oral,0
same,"Mortality, Hours after treatment 6",0.4 g/kg B.W. oral,0
same,Final mortality,"0.4 g/kg B.W. oral, 14 days",0%
same,Final mortality (dead/total),"0.4 g/kg B.W. oral, 14 days",0/5
same,"Mortality, Days after treatment 1",0.6 g/kg B.W. oral,0
same,"Mortality, Days after treatment 2",0.6 g/kg B.W. oral,0
same,"Mortality, Days after treatment 3",0.6 g/kg B.W. oral,0
same,"Mortality, Days after treatment 4",0.6 g/kg B.W. oral,0
same,"Mortality, Days after treatment 5",0.6 g/kg B.W. oral,0
same,"Mortality, Days after treatment 6",0.6 g/kg B.W. oral,0
same,"Mortality, Days after treatment 7",0.6 g/kg B.W. oral,0
same,"Mortality, Days after treatment 8",0.6 g/kg B.W. oral,0
same,"Mortality, Days after treatment 9",0.6 g/kg B.W. oral,0
same,"Mortality, Days after treatment 10",0.6 g/kg B.W. oral,0
same,"Mortality, Days after treatment 11",0.6 g/kg B.W. oral,0
same,"Mortality, Days after treatment 12",0.6 g/kg B.W. oral,0
same,"Mortality, Days after treatment 13",0.6 g/kg B.W. oral,0
same,"Mortality, Days after treatment 14",0.6 g/kg B.W. oral,0
same,"Mortality, Hours after treatment 1",0.6 g/kg B.W. oral,0
same,"Mortality, Hours after treatment 2",0.6 g/kg B.W. oral,0
same,"Mortality, Hours after treatment 3",0.6 g/kg B.W. oral,0
same,"Mortality, Hours after treatment 4",0.6 g/kg B.W. oral,0
same,"Mortality, Hours after treatment 5",0.6 g/kg B.W. oral,0
same,"Mortality, Hours after treatment 6",0.6 g/kg B.W. oral,0
same,Final mortality,"0.6 g/kg B.W. oral, 14 days",0%
same,Final mortality (dead/total),"0.6 g/kg B.W. oral, 14 days",0/5
same,"Mortality, Days after treatment 1",0.8 g/kg B.W. oral,1
same,"Mortality, Days after treatment 2",0.8 g/kg B.W. oral,1
same,"Mortality, Days after treatment 3",0.8 g/kg B.W. oral,0
same,"Mortality, Days after treatment 4",0.8 g/kg B.W. oral,0
same,"Mortality, Days after treatment 5",0.8 g/kg B.W. oral,0
same,"Mortality, Days after treatment 6",0.8 g/kg B.W. oral,0
same,"Mortality, Days after treatment 7",0.8 g/kg B.W. oral,0
same,"Mortality, Days after treatment 8",0.8 g/kg B.W. oral,0
same,"Mortality, Days after treatment 9",0.8 g/kg B.W. oral,0
same,"Mortality, Days after treatment 10",0.8 g/kg B.W. oral,0
same,"Mortality, Days after treatment 11",0.8 g/kg B.W. oral,0
same,"Mortality, Days after treatment 12",0.8 g/kg B.W. oral,0
same,"Mortality, Days after treatment 13",0.8 g/kg B.W. oral,0
same,"Mortality, Days after treatment 14",0.8 g/kg B.W. oral,0
same,"Mortality, Hours after treatment 1",0.8 g/kg B.W. oral,0
same,"Mortality, Hours after treatment 2",0.8 g/kg B.W. oral,0
same,"Mortality, Hours after treatment 3",0.8 g/kg B.W. oral,0
same,"Mortality, Hours after treatment 4",0.8 g/kg B.W. oral,0
same,"Mortality, Hours after treatment 5",0.8 g/kg B.W. oral,0
same,"Mortality, Hours after treatment 6",0.8 g/kg B.W. oral,0
same,Final mortality,"0.8 g/kg B.W. oral, 14 days",10%
same,Final mortality (dead/total),"0.8 g/kg B.W. oral, 14 days",2/5
same,"Mortality, Days after treatment 1",0.85 g/kg B.W. oral,2
same,"Mortality, Days after treatment 2",0.85 g/kg B.W. oral,1
same,"Mortality, Days after treatment 3",0.85 g/kg B.W. oral,0
same,"Mortality, Days after treatment 4",0.85 g/kg B.W. oral,0
same,"Mortality, Days after treatment 5",0.85 g/kg B.W. oral,0
same,"Mortality, Days after treatment 6",0.85 g/kg B.W. oral,0
same,"Mortality, Days after treatment 7",0.85 g/kg B.W. oral,0
same,"Mortality, Days after treatment 8",0.85 g/kg B.W. oral,0
same,"Mortality, Days after treatment 9",0.85 g/kg B.W. oral,0
same,"Mortality, Days after treatment 10",0.85 g/kg B.W. oral,0
same,"Mortality, Days after treatment 11",0.85 g/kg B.W. oral,0
same,"Mortality, Days after treatment 12",0.85 g/kg B.W. oral,0
same,"Mortality, Days after treatment 13",0.85 g/kg B.W. oral,0
same,"Mortality, Days after treatment 14",0.85 g/kg B.W. oral,0
same,"Mortality, Hours after treatment 1",0.85 g/kg B.W. oral,0
same,"Mortality, Hours after treatment 2",0.85 g/kg B.W. oral,0
same,"Mortality, Hours after treatment 3",0.85 g/kg B.W. oral,0
same,"Mortality, Hours after treatment 4",0.85 g/kg B.W. oral,0
same,"Mortality, Hours after treatment 5",0.85 g/kg B.W. oral,0
same,"Mortality, Hours after treatment 6",0.85 g/kg B.W. oral,0
same,Final mortality,"0.85 g/kg B.W. oral, 14 days",60%
same,Final mortality (dead/total),"0.85 g/kg B.W. oral, 14 days",3/5
same,"Mortality, Days after treatment 1",1.25 g/kg B.W. oral,3
same,"Mortality, Days after treatment 2",1.25 g/kg B.W. oral,1
same,"Mortality, Days after treatment 3",1.25 g/kg B.W. oral,0
same,"Mortality, Days after treatment 4",1.25 g/kg B.W. oral,0
same,"Mortality, Days after treatment 5",1.25 g/kg B.W. oral,0
same,"Mortality, Days after treatment 6",1.25 g/kg B.W. oral,0
same,"Mortality, Days after treatment 7",1.25 g/kg B.W. oral,0
same,"Mortality, Days after treatment 8",1.25 g/kg B.W. oral,0
same,"Mortality, Days after treatment 9",1.25 g/kg B.W. oral,0
same,"Mortality, Days after treatment 10",1.25 g/kg B.W. oral,0
same,"Mortality, Days after treatment 11",1.25 g/kg B.W. oral,0
same,"Mortality, Days after treatment 12",1.25 g/kg B.W. oral,0
same,"Mortality, Days after treatment 13",1.25 g/kg B.W. oral,0
same,"Mortality, Days after treatment 14",1.25 g/kg B.W. oral,0
same,"Mortality, Hours after treatment 1",1.25 g/kg B.W. oral,0
same,"Mortality, Hours after treatment 2",1.25 g/kg B.W. oral,0
same,"Mortality, Hours after treatment 3",1.25 g/kg B.W. oral,0
same,"Mortality, Hours after treatment 4",1.25 g/kg B.W. oral,0
same,"Mortality, Hours after treatment 5",1.25 g/kg B.W. oral,0
same,"Mortality, Hours after treatment 6",1.25 g/kg B.W. oral,0
same,Final mortality,"1.25 g/kg B.W. oral, 14 days",100%
same,Final mortality (dead/total),"1.25 g/kg B.W. oral, 14 days",5/5
same,side effect,"rats, single administration of 500 mg/kg body weight per day",did not have any side effect
same,Autopsy findings of rats expired during the study period,single oral administration,expanded stomach and engorged liver
same,Autopsy findings of rats killed at the end of the study,"single oral administration, 14 days",Significant findings related to HD-2 administration were not observed
same,Clinical symptoms,within 3 days of single oral administration,dose-dependent depression and dyspnea
